# From patent US20220243177A1, “METHODS OF CULTURING QUIESCENT HEMATOPOIETIC STEM CELLS AND TREATMENT METHODS” (priority 2019, published 2022)
# Legend:
# Type in all cases: cell-based, mouse
# [1] = system: bone marrow lineage-negative cells; experiment: Lineage negative bone marrow cell culture, HSC frequency and MMP; details: ConA 100 nM
# Procedure: For measuring MMP and proliferation, lineage negative bone marrow (BM) cells were enriched with the EasySep Mouse hemato- poietic progenitor kit. Lineage negative (1 3 106) cells (isolated separately from four mice) were seeded onto 6 well plates in Stem-Span medium containing SCF (100 ng/ml) and TPO (20 ng/ml). Cells were treated with ConA (100nM) or the DMSO control and analyzed at 0, 6, 12 and 24 hour-time points by flow cytometry for HSC (LSKCD150+CD48−) frequencies or MMP-low and MMP- high HSCs frequencies or MMP (TMRE).
# [2] = system: MMP-low and MMP-high HSCs (LSKCD150+CD48-); experiment: Single cell division assay; details: for Number of wells with each number of cell division: 0 / Number of wells with each number of cell division: 1 / Number of wells with each number of cell division: Dead / Number of wells with each number of cell division: ≥2: 60 h
# Procedure: Single Cell Division Assay: Single cell cultures were carried out as previously described (Bernitz et al., “Hematopoietic Stem Cells Count and Remember Self-Renewal Divisions,” Cell 167(5): 1296-1309 (2016), which is hereby incorporated by reference in its entirety). Single MMP-low and MMP-high HSCs (LSKCD150^+CD48^−) isolated from GFP-transgenic mice were FACS sorted into individual wells of round-bottomed 96-well plates. Single cells were visually confirmed under light microscope and cultured in serum free Stemspan medium. Wells were supplemented with SCF (100 ng/ml) and TPO (20 ng/ml) (both from R&D system), were incubated at 37° C. in a humidified atmosphere with 5% CO2, and the number of cells per well was monitored daily. The final number of cell divisions per well was assessed at the indicated time points in each experiment. Treatments with concanamycin A (“ConA”) (40-100 nM) or DMSO control were added at the start of culture and left in the wells for the duration of the experiment unless otherwise stated. More than 200 cells per condition were analyzed. Cell Cycle Analysis—Pyronin Y staining. Pyronin Y staining was performed as described in Rimmele et al., “Mitochondrial Metabolism in Hematopoietic Stem Cells Requires Functional FOXO3,” EMBO Rep. 16: 1164-1176 (2015) and Yalcin et al., “Foxo3 Is Essential for the Regulation of Ataxia Telangiectasia Mutated and Oxidative Stress-mediated Homeostasis of Hematopoietic Stem Cells,” J. Biol. Chem. 283: 25692-25705 (2008), which are hereby incorporated by reference in their entirety. FACS-purified MMP-low and MMP-high LT-HSCs were stained with Hoechst 33342 ([…]) at 37° C. for 45 minutes, followed by staining with pyronin Y (1 mg/ml) for an additional 15 minutes at 37° C. Cells were then washed in cold PBS, and resuspended in IMDM+2% FBS. Samples were immediately analyzed by flow cytometry.
# [3] = system: MMP-low and MMP-high HSCs; experiment: Immunofluorescence staining and laser scanning confocal microscopy of treated HSCs; details: ConA 40 nM, 18 hours
# Procedure: Immunofluorescence Staining, Imaging, and Analysis—Laser Scanning Confocal Microscopy: FACS purified MMP-low and MMP-high HSCs (in average pooled from three mice) were seeded into retronectin-coated channel slides (Ibidi Cat# 80626) and fixed for 15 minutes with 10% formalin (1,000 cells). After washing with PBS, cells were permeabilized in PBS+0.25% Triton™ X-100 for 15 minutes and blocked for 1 hour in 3% BSA. Fixed and permeabilized cells were then incubated with primary antibodies (1:150) in PBS+1% BSA overnight at 4° C., washed and stained with fluorescence-conjugated secondary antibodies (1:1,000) for 1 hour at room temperature. Slides were sealed with mounting medium with DAPI. Images were captured using a Zeiss LSM880 Airyscan confocal microscope using a 100× objective (N.A. 1.46).
# For analysis by immunofluorescence staining, MMP-low and MMP-high HSCs were FACS-purified and incubated in StemSpan medium containing SCF (100 ng/ml) and TPO (20 ng/ml) for the indicated time with the indicated compounds at 37° C. in a humidified atmosphere with 5% CO2. After treatment, cells were processed for confocal imaging as described above.
# Fluorescence Intensity: Channel displaying the protein of interest were isolated and quantified on a per cell basis using the raw integrated density metric generated by the measure command. For nuclear intensity, DAPI thresholds were used to delimit the nucleus and mapped back onto the channel displaying the protein of interest to determine fluorescence intensity within the nucleus only.
# [4] = aging HSCs, ConA 40 nM, 60-hour
# [5] = aging MMP-low and MMP-high HSCs
structure (smiles),measurement,setting,value
"C/C=C/[C@H]1O[C@@](O)([C@@H](C)[C@H](O)[C@H](C)[C@H]2OC(=O)/C(OC)=C/C(C)=C/[C@@H](C)[C@@H](O)[C@@H](CC)[C@@H](O)[C@H](C)C/C(C)=C/C=C/[C@@H]2OC)C[C@@H](O[C@H]2C[C@@H](O)[C@H](OC(N)=O)[C@@H](C)O2)[C@@H]1C [ConA, concanamycin A]",MMP in recovered cells,[1]; 12-24 hours,relative decrease of MMP
same,frequency of HSCs recovered from 24-hour in vitro culture,[1]; 24 hours,improved frequency
same,retention of the MMP-low HSC fraction,[1]; twenty-four-hour,greater retention
same,frequency of non-dividing MMP-high GFP+ HSCs,"[2]; ConA 40 nM, up to 60 hours",significantly increased
same,non-dividing MMP-low HSCs in culture,"[2]; ConA 40 nM, up to 60 hours",only a slight effect
same,Number of wells with each number of cell division: 0,[2]; MMP High + Con A (40 nM),23.8 ± 1.33
same,Number of wells with each number of cell division: 1,[2]; MMP High + Con A (40 nM),8.8 ± 0.84
same,Number of wells with each number of cell division: Dead,[2]; MMP High + Con A (40 nM),14.4 ± 0.92
same,Number of wells with each number of cell division: ≥2,[2]; MMP High + Con A (40 nM),7.4 ± 2.62
same,Number of wells with each number of cell division: 0,[2]; MMP Low + Con A (40 nM),35.8 ± 8.89
same,Number of wells with each number of cell division: 1,[2]; MMP Low + Con A (40 nM),7.4 ± 1.24
same,Number of wells with each number of cell division: Dead,[2]; MMP Low + Con A (40 nM),7 ± 1.51
same,Number of wells with each number of cell division: ≥2,[2]; MMP Low + Con A (40 nM),4.6 ± 1.53
same,cell death of aging HSC in culture,[2]; [4],without any increase in cell death
same,division of aging HSC in culture,[2]; [4],divided less than non-treated HSC
same,lysosomal phenotype (LAMP2),[3],bloated lysosomal phenotype
same,mTOR co-localization with lysosomes in MMP-high HSCs,[3],lost
same,expression of Ki67 and CDK6,[3]; MMP-high HSCs,restored in ConA-treated MMP-high HSCs to the levels of the untreated MMP-low HSCs
same,"mTOR signaling (mTOR, RHEB, RAGA/B, p4EBP1) in MMP-high HSCs",[3]; almost to levels of rapamycin (40 nM)-treated HSCs,repression of mTOR signaling
same,mTOR activity in old HSCs,[3]; aging HSCs,reduced/abolished mTOR activity
same,cycling status (CDK6 staining) of aging HSCs,[3]; [5],reverted the cycling status
same,lysosomal content in old HSCs,[3]; [5],increasing lysosomal content
